Assay results taken from patent publication US8435998B2, “Crystalline form of posaconazole” (Sandoz AG, priority 2008, dated 2013).
In brackets after ≈: the same amount, converted by molar mass. Several values for one entry are separate records, joined by “and”; a condition that tells them apart may be missing. Equal entries are not always repeated.

Key:
[1] = Specific surface area, BET method with nitrogen (NOVA 2000); assay type: physicochemical; details: for Specific Surface Area: BET, nitrogen, 77° K
Text: The specific surface area of crystalline form IV of posaconazole as such, i.e. as obtained according to the herein described methods, is typically about 10-25 m^2/g±0.5 m^2/g, e.g. about 13-20 m^2/g±0.5 m^2/g, such as about 15-17 m^2/g±0.5 m^2/g, as measured according to the known Multi-Point-BET-method as herein described and as shown in Example 7. This specific surface area of crystalline form IV of posaconazole is about 10-fold larger when compared to that of known crystalline form I. It is known that the specific surface area between a solid and a liquid phase has a direct impact on the dissolution rate and thus on the bioavailability of the pharmaceutical ingredient as described e.g. by the equation by Nernst and Brunner as found in W. Nernst, Z. Phys. Chem. 47 (1904), pp. 52-55. […] Thus, crystalline form IV of posaconazole may advantageously be used as such, i.e. without being micronized, for preparing a pharmaceutical composition, e.g. a liquid suspension or dispersion as herein described—in contrast to known posaconazole forms which are micronized for use in such suspensions as e.g. described in WO 02/80678.
Specific surface area measurement was performed with the equipment NOVA 2000 as commercially available from Quantachrome Instruments using the BET method and Nitrogen as the absorbed gas at 77° K (i.e. −196.15° C.) as described e.g. by Medema J, Campagne A.: A Simple Method to Determine Cumulative Surface-Area Distributions of Porous Solids; Journal of Catalysis, Volume 8, Issue 2, pp. 120, 1967. Crystalline form IV of posaconazole was prepared according to Example 4. Crystalline form I was prepared by the method of example 3 described in U.S. Pat. No. 6,958,337.

[2] = Median particle size by laser diffraction (Malvern Mastersizer 2000S) in oral suspension; assay type: physicochemical; details: for Median particle size (d (0.5)-value): in suspension, laser diffraction after 5 min ultrasonic treatment
Text: The median particle size of crystalline form IV of posaconazole when used as such, i.e. in a non-micronized form for preparing a pharmaceutical composition in the form of a liquid suspension or dispersion as herein described, has been determined in samples taken from such suspension. Said median particle size is typically about 0.1-0.2 μm±0.05 μm, e.g. 0.14-0.17 μm, such as 0.15 μm, when measured with known laser diffraction methods, e.g. determination of the particle size distribution (Malvern) according to the US-Pharmacopeia (USP) 32 (2009) method <429> and to the European Pharmacopeia (EP) 6 (2008) method 2.9.31. based on the diffraction of laser by particles within the measurement volume (for details see Example 8). In the present invention, the term median particle size is understood to mean the d(0.5) value as determined according to the herein described laser diffraction methods.
Crystalline form IV as obtained by Example 4 was used to prepare 25 ml of a suspension as follows:
The suspension was prepared as follows: 40% of the final amount of Polysorbat 80 and 40% of the final amount of simethicone were mixed and dissolved and/or dispersed in about 12% of the final amount of purified water and homogenized with Ultra Turrax (30 seconds; 27,000 rpm). Subsequently, 1 g of the form IV of posaconazole, i.e. in its non-micronized form, were suspended or dispersed in this mixture under homogenization by Ultra Turrax (27,000 rpm, 2 minutes). The remaining 60% of Polysorbat 80 and of simethicone and 32% of the final amount of the purified water were added and mixed followed by the addition of sodium benzoate, sodium citrate dihydrate and citric acid monohydrate. After further mixing, xanthan gum was added to the mixture under stirring, followed by a 30 minutes phase of hydratization without mixing. Subsequently, glycerol and liquid glucose as well as titanium dioxide and the remaining portion of 56% of the final amount of purified water were added under mixing with a suitable homogenizer until a uniform suspension was obtained.
25 ml of a similar suspension were prepared analogously using non-micronized crystalline form I of posaconazole which was prepared by the method of example 3 described in U.S. Pat. No. 6,958,337.
Additionally, NOXAFIL® oral suspension (40 mg/ml) as commercially available from Medizone Germany GMBH (US product) was used to determine the particle size distribution of micronized form I of posaconazole which was contained in this known suspension.
The particle size distribution (Malvern) was measured according to the USP 32 (2009) method <429> and EP 6 (2008) method 2.9.31. based on the diffraction of laser by particles using a Mastersizer 2000S liquid dispersion system. The particle size measurement was started after ultrasonic treatment of the sample for 5 min.

[3] = Dissolution of suspensions, USP 32 method <711>, apparatus II (Paddle); assay type: physicochemical; details: 25 rpm, 0.3% SLS aqueous solution
Experimental: The liquid suspensions containing non-micronized crystalline form IV or non-micronized crystalline form I as well as the NOXAFIL® oral suspension containing micronized crystalline form I described in Example 8 were tested for their dissolution behaviour.
Dissolution was tested according to USP 32 (2009) method <711> (USP apparatus II (Paddle); 25 rpm; dissolution medium: 0.3% SLS aqueous solution). Posaconazole concentrations were determined with an online photometer (UV absorption at 260 nm).
The results are shown in Table 4 below wherein values are the amount of posaconazole dissolved in %, and in more detail in FIG. 6 wherein the amount of posaconazole dissolved in % is plotted versus time in minutes.

[4] = on storage as micronised powder, during manufacture or as formulated in the finished product; cited from earlier work
[5] = Equilibrium solubility method in water; assay type: physicochemical
Experimental: The solubility of crystalline form IV was determined by the equilibrium solubility method. A saturated solution of form IV, obtained by stirring 250 mg form IV in 6 ml water overnight, was prepared. The sample was filtered through a 0.45 μm membrane filter and the concentration of form IV in the filtrate was measured using a Perkin Elmer Lambda 35 UV/VIS spectrophotometer (λ=260 nm).

[6] = Storage stability of the solid form (degradation or polymorphic conversion by HPLC, IR or XRPD); assay type: physicochemical
Experimental: Crystalline form IV is stable under storage conditions which are typical for pharmaceutical compositions and is thus suitable for the preparation of medicaments. Typical storage conditions are, for example, storage at ambient temperature, such as about 20° C. to about 30° C., for several months (e.g., for at least 5 months, preferably at least 12 months, more preferably at least 24 months) in a closed vial.
In experiments crystalline form IV was stable during storage for 63 days at ambient temperature. Even when stored for 4 weeks at 40° C., crystalline form IV was stable.
In this context, “stable” means that neither degradation nor polymorphic conversion to another polymorphic form of crystalline form IV can be detected, for example by HPLC, IR or XRPD analysis as defined herein.

[7] = Polymorphic stability suspended in water and stirred; assay type: physicochemical; details: suspended in water and stirred for 1 week at ambient temperature
[8] = Stability of form IV in an aqueous pharmaceutical composition (XRPD); assay type: physicochemical; details: aqueous pharmaceutical suspension stirred at ambient temperature for 1 week
Experimental: The stability of form IV in an aqueous pharmaceutical composition was investigated. 240 mg form IV were suspended in a 4 ml aqueous suspension consisting of a mixture of 19 mg sodium benzoate, 3 mg citric acid, 19 mg xanthan gum, 60 mg Polysorbat 80, 600 mg glycerine and 2 g liquid glucose. The suspension was stirred at ambient temperature for 1 week.

[9] = Moisture sorption isotherm (SPS-11); assay type: physicochemical; details: 90% relative humidity, 25° C.
Experimental: The moisture sorption isotherm was recorded with a SPS-11 moisture sorption analyzer (MD Mess-technik, Ulm, D). The measurement cycle was started at 0% relative humidity (RH), increased in 10% steps up to 90% RH and in a 5% step up to 95% RH. The equilibrium condition for each step was set to a constant mass±0.003% over 49 min. The temperature was 25±0.1° C.
The water content of the obtained crystalline form IV was 2.43%. […] The maximum water content peaks at 3.7% at 90% relative humidity, which corresponds to a water mol ratio of 1.5 (FIG. 4).

[10] = WO 99/18097; cited from earlier work
[11] = cited from earlier work
[12] = listed as crystalline form IV of posaconazole

## CC[C@@H]([C@H](C)O)n1ncn(-c2ccc(N3CCN(c4ccc(OC[C@@H]5CO[C@@](Cn6cncn6)(c6ccc(F)cc6F)C5)cc4)CC3)cc2)c1=O [Crystalline Form I, posaconazole]
[1]; listed as Crystalline Form I of posaconazole
  Specific Surface Area: 1.5 m^2/g and 1.6 m^2/g
[2]; listed as Crystalline Form I (non-micronized)
  Median particle size (d (0.5)-value): 12.88 μm
[3]; 3 min, listed as Crystalline Form I non-micronized
  amount of posaconazole dissolved: 29%
[3]; 25 min, listed as Crystalline Form I non-micronized
  amount of posaconazole dissolved: 61%
[4]
  polymorphic transition: no evidence of polymorphic transition

## CC[C@@H]([C@H](C)O)n1ncn(-c2ccc(N3CCN(c4ccc(OC[C@@H]5CO[C@@](Cn6cncn6)(c6ccc(F)cc6F)C5)cc4)CC3)cc2)c1=O [Crystalline Form IV, 2,5-anhydro-1,3,4-trideoxy-2-C-(2,4-difluorophenyl)-4-[[4-[4-[4-[1-[(1S,2S)-1-ethyl-2-hydroxypropyl]-1,5-dihydro-5-oxo-4H-1,2,4-triazol-4-yl]phenyl]-1-piperazinyl]phenoxy]methyl]-1-(1H-1,2,4-triazol-1-yl)-D-threo-pentitol]
[5]; thermodynamic from solid, saturated solution in water, stirred overnight, 0.45 μm filtered, UV 260 nm
  solubility: 2.1 µg/mL (≈ 3 µM)
[5]; water, equilibrium solubility
  solubility compared with form I: more than two times higher
[6]; 4 weeks at 40° C.
  stability during storage: stable
[6]; 63 days at ambient temperature
  stability during storage: stable
[7]
  transformation into another form: not susceptible to transformation into another form
[8]
  stability in aqueous suspension (XRPD): remained stable
[1]; listed as Crystalline Form IV of posaconazole
  Specific Surface Area: 15.5 m^2/g and 15.7 m^2/g
[1]; [12]
  Specific Surface Area: 10-25 m^2/g
[1]; larger than form I
  specific surface area relative to crystalline form I: about 10 fold
[2]; listed as Crystalline Form IV (non-micronized)
  Median particle size (d (0.5)-value): 0.15 μm
[2]; [12]
  Median particle size (d (0.5)-value): 0.1-0.2 μm
[2]; smaller than micronized form I
  median particle size relative to micronized form I: about 10 fold
[2]; smaller than non-micronized form I
  median particle size relative to non-micronized form I: about 90 fold
[3]; 3 min, listed as Crystalline Form IV non-micronized
  amount of posaconazole dissolved: 82%
[3]; 25 min, listed as Crystalline Form IV non-micronized
  amount of posaconazole dissolved: 100%
[9]
  maximum water content (moisture sorption): 3.7%
  water mol ratio at maximum water content: 1.5

## CC[C@@H]([C@H](C)O)n1ncn(-c2ccc(N3CCN(c4ccc(OC[C@@H]5CO[C@@](Cn6cncn6)(c6ccc(F)cc6F)C5)cc4)CC3)cc2)c1=O [Crystalline form II, posaconazole]
[10]
  stability under the conditions investigated: unstable

## CC[C@@H]([C@H](C)O)n1ncn(-c2ccc(N3CCN(c4ccc(OC[C@@H]5CO[C@@](Cn6cncn6)(c6ccc(F)cc6F)C5)cc4)CC3)cc2)c1=O [posaconazole, 2,5-anhydro-1,3,4-trideoxy-2-C-(2,4-difluorophenyl)-4-[[4-[4-[4-[1-[(1S,2S)-1-ethyl-2-hydroxypropyl]-1,5-dihydro-5-oxo-4H-1,2,4-triazol-4-yl]phenyl]-1-piperazinyl]phenoxy]methyl]-1-(1H-1,2,4-triazol-1-yl)-D-threo-pentitol]
[11]
  log P: > 3
